Assay results as given in US20180250280A1 (BAYER PHARMA AKTIENGESELLSCHAFT, priority 2015, published 2018).

Key:
human factor XIa = biological target: T1, human factor XIa (Homo sapiens, UniProt P03951); experiment: Measurement of FXIa inhibition (fluorogenic peptide substrate, AMC cleavage); format: biochemical; settings: factor XIa from Kordia 0.45 nM; substrate Boc-Glu(OBzl)-Ala-Arg-AMC 10 μM; 30 min at 22° C.; in some cases averages from multiple determinations
T1 construct: purchased Kordia
Protocol: (§1) The factor XIa inhibition of the substances according to the invention is determined using a biochemical test system which utilizes the reaction of a peptidic factor XIa substrate to determine the enzymatic activity of human factor XIa. Here, factor XIa cleaves from the peptic factor XIa substrate the C-terminal aminomethylcoumarin (AMC), the fluorescence of which is measured. The determinations are conducted in microtitre plates.
Test substances are dissolved in dimethyl sulfoxide and serially diluted in dimethyl sulfoxide (3000 μM to 0.0078 μM; resulting final concentrations in the test: 50 μM to 0.00013 μM). 1 μl of the diluted substance solutions is placed into each of the wells of white microtitre plates from Greiner (384 wells). 20 μl of assay buffer (50 mM of Tris/HCl pH 7.4; 100 mM of sodium chloride; 5 mM of calcium chloride; 0.1% of bovine serum albumin) and 20 μl of factor XIa from Kordia (0.45 nM in assay buffer) are then added successively. After 15 min of incubation, the enzyme reaction is started by addition of 20 μl of the factor XIa substrate Boc-Glu(OBzl)-Ala-Arg-AMC dissolved in assay buffer (10 μM in assay buffer) from Bachem, the mixture is incubated at room temperature (22° C.) for 30 min and fluorescence is then measured (excitation: 360 nm, emission: 460 nm). The measured emissions of the test batches with test substance are compared to those of control batches without test substance (only dimethyl sulfoxide instead of test substance in dimethyl sulfoxide), and IC50 values are calculated from the concentration/activity relationships. Activity data from this test are given in Table A below (in some cases as averages from multiple individual determinations): […]

human plasma kallikrein = biological target: T2, human plasma kallikrein (Homo sapiens, UniProt P03952); experiment: Determination of the plasma kallikrein activity (fluorogenic peptide substrate, AMC cleavage); format: biochemical; settings: plasma kallikrein from Kordia 0.6 nM; substrate H-Pro-Phe-Arg-AMC 10 μM; 30 min at 22° C.; in some cases averages from multiple determinations
T2 construct: purchased Kordia
Protocol: as §1, with “To determine the plasma kallikrein” for “The factor XIa”, “invention,” for “invention is determined using”, “system is used” for “system”, “plasma kallikrein” for “factor XIa”, “plasma kallikrein.” for “factor XIa.”
Test substances are dissolved in dimethyl sulfoxide and serially diluted in dimethyl sulfoxide (3000 μM to 0.0078 μM; resulting final concentrations in the test: 50 μM to 0.00013 μM). 1 μl of the diluted substance solutions is placed into each of the wells of white microtitre plates from Greiner (384 wells). 20 μl of assay buffer (50 mM Tris/HCl pH 7.4; 100 mM sodium chloride solution; 5 mM calcium chloride solution; 0.1% of bovine serum albumin) and 20 μl of plasma kallikrein from Kordia (0.6 nM in assay buffer) are then added successively. After 15 min of incubation, the enzyme reaction is started by addition of 20 μl of the substrate H-Pro-Phe-Arg-AMC dissolved in assay buffer (10 μM in assay buffer) from Bachem, the mixture is incubated at room temperature (22° C.) for 30 min and fluorescence is then measured (excitation: 360 nm, emission: 460 nm). The measured emissions of the test batches with test substance are compared to those of control batches without test substance (only dimethyl sulfoxide instead of test substance in dimethyl sulfoxide), and IC50 values are calculated from the concentration/activity relationships. Activity data from this test are given in Table B below (in some cases as averages from multiple individual determinations): […]

T1 sequence (P03951 388-625 limits assumed): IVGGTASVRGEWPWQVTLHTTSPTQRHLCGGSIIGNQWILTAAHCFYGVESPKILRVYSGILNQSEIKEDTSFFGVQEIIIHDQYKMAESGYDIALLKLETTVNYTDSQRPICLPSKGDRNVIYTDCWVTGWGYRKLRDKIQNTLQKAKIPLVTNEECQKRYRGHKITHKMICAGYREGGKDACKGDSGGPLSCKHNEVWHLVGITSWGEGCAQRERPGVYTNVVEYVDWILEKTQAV
T1 sequence (P03951 19-387 partner limits assumed): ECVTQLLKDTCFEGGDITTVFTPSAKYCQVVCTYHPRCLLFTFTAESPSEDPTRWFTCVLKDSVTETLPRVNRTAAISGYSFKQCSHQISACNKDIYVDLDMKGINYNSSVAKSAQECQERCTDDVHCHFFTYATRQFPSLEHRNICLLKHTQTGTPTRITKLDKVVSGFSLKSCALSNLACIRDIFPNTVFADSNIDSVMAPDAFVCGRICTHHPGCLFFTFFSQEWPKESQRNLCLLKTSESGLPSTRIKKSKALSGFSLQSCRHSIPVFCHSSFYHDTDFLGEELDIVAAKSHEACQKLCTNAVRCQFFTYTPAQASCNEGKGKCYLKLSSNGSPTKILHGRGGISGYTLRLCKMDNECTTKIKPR
T2 sequence (P03952 391-638 limits assumed): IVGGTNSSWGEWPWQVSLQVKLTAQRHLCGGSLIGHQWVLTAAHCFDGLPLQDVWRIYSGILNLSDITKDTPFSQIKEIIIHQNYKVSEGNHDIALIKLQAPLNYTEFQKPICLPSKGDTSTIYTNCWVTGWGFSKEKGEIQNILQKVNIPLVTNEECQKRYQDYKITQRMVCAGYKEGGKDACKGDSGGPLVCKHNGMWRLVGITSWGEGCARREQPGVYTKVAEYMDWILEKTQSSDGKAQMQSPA
T2 sequence (P03952 20-390 partner limits assumed): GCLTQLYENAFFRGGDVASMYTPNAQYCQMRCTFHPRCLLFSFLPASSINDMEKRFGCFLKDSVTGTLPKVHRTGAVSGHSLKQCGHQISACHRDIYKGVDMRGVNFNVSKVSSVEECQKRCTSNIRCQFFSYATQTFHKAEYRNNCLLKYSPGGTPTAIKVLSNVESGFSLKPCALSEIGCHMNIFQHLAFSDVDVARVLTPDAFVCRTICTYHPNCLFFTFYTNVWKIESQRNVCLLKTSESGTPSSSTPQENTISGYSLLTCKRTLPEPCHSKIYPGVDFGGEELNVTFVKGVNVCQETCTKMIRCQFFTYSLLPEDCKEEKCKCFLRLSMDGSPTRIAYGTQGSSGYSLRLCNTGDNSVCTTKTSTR

Structure (SMILES)	IC50 (human factor XIa) [µM]	IC50 (human plasma kallikrein) [µM]
COc1cn(C(CCOC(C)(C)C)C(=O)Nc2ccc(C(N)=O)nc2)c(=O)cc1-c1cc(Cl)ccc1OCC(F)(F)F (racemic) [Example 11, 5-[(4-tert-Butoxy-2-{4-[5-chloro-2-(2,2,2-trifluoroethoxy)phenyl]-5-methoxy-2-oxopyridin-1(2H)-yl}butanoyl)amino]pyridine-2-carboxamide]	0.018	0.087
COc1cn(C(CC2COCCO2)C(=O)Nc2ccc(C(N)=O)nc2)c(=O)cc1-c1cc(Cl)ccc1OCC(F)(F)F (centres unmarked) [Example 18, 5-{[2-{4-[5-Chloro-2-(2,2,2-trifluoroethoxy)phenyl]-5-methoxy-2-oxopyridin-1(2H)-yl}-3-(1,4-dioxan-2-yl)propanoyl]amino}pyridine-2-carboxamide]	0.0032	0.055
COc1cn(C(CCOC(C)C)C(=O)Nc2ccc(C(=O)O)cc2)c(=O)cc1-c1cc(Cl)ccc1OCC(F)(F)F (racemic) [Example 34, 4-[(2-{4-[5-Chloro-2-(2,2,2-trifluoroethoxy)phenyl]-5-methoxy-2-oxopyridin-1(2H)-yl}-4-isopropoxybutanoyl)amino]benzoic acid]	0.0019	0.045
COc1cn(C(CCOC2(C)CCC2)C(=O)Nc2ccc(C(=O)O)cc2)c(=O)cc1-c1cc(Cl)ccc1OCC(F)(F)F (racemic) [Example 55, 4-[(2-{4-[5-Chloro-2-(2,2,2-trifluoroethoxy)phenyl]-5-methoxy-2-oxopyridin-1(2H)-yl}-4-[(1-methylcyclobutyl)oxy]butanoyl)amino]benzoic acid]	0.0018	0.032
COc1cn(C(CC2COCCO2)C(=O)Nc2ccc(C(=O)O)cc2)c(=O)cc1-c1cc(Cl)ccc1OCC(F)F (centres unmarked) [Example 29, 4-{[2-{4-[5-Chloro-2-(2,2-difluoroethoxy)phenyl]-5-methoxy-2-oxopyridin-1(2H)-yl}-3-(1,4-dioxan-2-yl)propanoyl]amino}benzoic acid]	0.0016	0.08
CCCC(C(=O)Nc1ccc(C(=O)O)cc1)n1cc(OC)c(-c2cc(Cl)ccc2OCC(F)(F)F)cc1=O (racemic) [Example 67, 4-{[2-{4-[5-Chloro-2-(2,2,2-trifluoroethoxy)phenyl]-5-methoxy-2-oxopyridin-1(2H)-yl}pentanoyl]amino}benzoic acid]	0.0028	0.14
COc1cn(C(CCOC2(C)CCC2)C(=O)Nc2ccc3nn(C)cc3c2)c(=O)cc1-c1cc(Cl)ccc1OCC(F)(F)F (racemic) [Example 58, 2-[4-[5-Chloro-2-(2,2,2-trifluoroethoxy)phenyl]-5-methoxy-2-oxo-1-pyridyl]-4-(1-methylcyclobutoxy)-N-(2-methylindazol-5-yl)butanamide]	0.014	0.057
CNC(=O)c1ccc(NC(=O)C(CC2COCCO2)n2cc(OC)c(-c3cc(Cl)ccc3OCCF)cc2=O)cn1 (centres unmarked) [Example 46, 5-{[2-{4-[5-Chloro-2-(2-fluoroethoxy)phenyl]-5-methoxy-2-oxopyridin-1(2H)-yl}-3-(1,4-dioxan-2-yl)propanoyl]amino}-N-methylpyridine-2-carboxamide]	0.0089	0.15
COc1cn(C(CCOC(C)(C)C)C(=O)Nc2ccc(C(N)=O)c(F)c2)c(=O)cc1-c1cc(Cl)ccc1OCC(F)(F)F (racemic) [Example 10, 4-[(4-tert-Butoxy-2-{4-[5-chloro-2-(2,2,2-trifluoroethoxy)phenyl]-5-methoxy-2-oxopyridin-1(2H)-yl}butanoyl)amino]-2-fluorobenzamide]	0.015	0.077
COc1cn(C(CCOC2(C)CCC2)C(=O)Nc2ccc(C(N)=O)c(F)c2)c(=O)cc1-c1cc(Cl)ccc1OCC(F)(F)F (racemic) [Example 59, 4-[[2-[4-[5-Chloro-2-(2,2,2-trifluoroethoxy)phenyl]-5-methoxy-2-oxo-1-pyridyl]-4-(1-methylcyclobutoxy)butanoyl]amino]-2-fluorobenzamide]	0.014	0.11
COc1cn(C(CCOC(F)(F)F)C(=O)Nc2ccc3nn(C)cc3c2)c(=O)cc1-c1cc(Cl)ccc1OCC(F)(F)F (racemic) [Example 38, 2-{4-[5-Chloro-2-(2,2,2-trifluoroethoxy)phenyl]-5-methoxy-2-oxopyridin-1(2H)-yl}-N-(2-methyl-2H-indazol-5-yl)-4-(trifluoromethoxy)butanamide]	0.013	0.093
COCCC(C(=O)Nc1ccc(C(N)=O)c(F)c1)n1cc(OC)c(-c2cc(Cl)ccc2OCC(F)(F)F)cc1=O (racemic) [Example 3, 4-[(2-{4-[5-Chloro-2-(2,2,2-trifluoroethoxy)phenyl]-5-methoxy-2-oxopyridin-1(2H)-yl}-4-methoxybutanoyl)amino]-2-fluorobenzamide]	0.014	0.1

Continued by falling IC50 (human factor XIa), values first:

IC50 (human factor XIa) [µM]	IC50 (human plasma kallikrein) [µM]	Structure (SMILES)
0.0093	0.21	COc1cn(C(C[C@@H]2CCCCO2)C(=O)Nc2ccc(C(N)=O)c(F)c2)c(=O)cc1-c1cc(Cl)ccc1OCC(F)(F)F (stereo partly drawn) [Example 53, 4-[(2-{4-[5-Chloro-2-(2,2,2-trifluoroethoxy)phenyl]-5-methoxy-2-oxopyridin-1(2H)-yl}-3-[(2S)-tetrahydro-2H-pyran-2-yl]propanoyl)amino]-2-fluorobenzamide]
0.0071	0.12	CNC(=O)c1ccc(NC(=O)C(CC2COCCO2)n2cc(OC)c(-c3cc(Cl)ccc3OCC(F)F)cc2=O)cn1 (centres unmarked) [Example 31, 5-{[2-{4-[5-Chloro-2-(2,2-difluoroethoxy)phenyl]-5-methoxy-2-oxopyridin-1(2H)-yl}-3-(1,4-dioxan-2-yl)propanoyl]amino}-N-methylpyridine-2-carboxamide]
0.006	0.065	COc1cn(C(C[C@@H]2CCCCO2)C(=O)Nc2ccc3nn(C)cc3c2)c(=O)cc1-c1cc(Cl)ccc1OCC(F)(F)F (stereo partly drawn) [Example 51, 2-{4-[5-Chloro-2-(2,2,2-trifluoroethoxy)phenyl]-5-methoxy-2-oxopyridin-1(2H)-yl}-N-(2-methyl-2H-indazol-5-yl)-3-[(2S)-tetrahydro-2H-pyran-2-yl]propanamide]
0.0058	0.066	COc1cn(C(CC2COCCO2)C(=O)Nc2ccc3nn(C)cc3c2)c(=O)cc1-c1cc(Cl)ccc1OCC(F)F (centres unmarked) [Example 33, 2-{4-[5-Chloro-2-(2,2-difluoroethoxy)phenyl]-5-methoxy-2-oxopyridin-1(2H)-yl}-3-(1,4-dioxan-2-yl)-N-(2-methyl-2H-indazol-5-yl)propanamide]
0.0022	0.15	COc1cc(NC(=O)C(C[C@@H]2CCCCO2)n2cc(OC)c(-c3cc(Cl)ccc3OCC(F)(F)F)cc2=O)ccc1C(=O)O (stereo partly drawn) [Example 76, 4-({2-{4-[5-Chloro-2-(2,2,2-trifluoroethoxy)phenyl]-5-methoxy-2-oxopyridin-1(2H)-yl}-3-[(2S)-tetrahydro-2H-pyran-2-yl]propanoyl}amino)-2-methoxybenzoic acid]
0.00096	0.0094	COc1cn(C(Cc2ccn(C)n2)C(=O)Nc2ccc(C(=O)O)cc2)c(=O)cc1-c1cc(Cl)ccc1OCC(F)(F)F (single isomer, unassigned) [Example 43, 4-{[2-{4-[5-Chloro-2-(2,2,2-trifluoroethoxy)phenyl]-5-methoxy-2-oxopyridin-1(2H)-yl}-3-(1-methyl-1H-pyrazol-3-yl)propanoyl]amino}benzoic acid]
0.00052	0.015	COc1cn(C(CC2COCCO2)C(=O)Nc2ccc(C(=O)O)cc2)c(=O)cc1-c1cc(Cl)ccc1OCC(F)(F)F (single isomer, unassigned) [Example 62, 4-{[2-{4-[5-Chloro-2-(2,2,2-trifluoroethoxy)phenyl]-5-methoxy-2-oxopyridin-1(2H)-yl}-3-(1,4-dioxan-2-yl)propanoyl]amino}benzoic acid]
